Organism: Rattus norvegicus
Experiment: Open TG-GATES - Regimen: Single
Assay type: toxicity, organism-based, Sprague-Dawley
Set-up: regimen Single, gender Male, age 6 weeks
Details: in vivo, po, 0 mg/kg, route gavage, dose level Control; for APTT / Bas / Eos / Fbg / Hb / Ht / Lym / MCHC / MCV / Mono / PT / Plat / RBC / Ret / WBC: tissue Blood; for KIDNEY_L / KIDNEY_R / KIDNEY_TOTAL: tissue Kidney; for LIVER: tissue Liver; for ALP / ALT / AST / BUN / CRE / DBIL / GLC / K / LDH / Na / PL / RALB / TBIL / TC / TG / TP / gamma-GTP: tissue Plasma

O=C1NC(=O)C(c2ccccc2)(c2ccccc2)N1 [PHENYTOIN]
TERMINAL_BW (3 h): 209.3 g | APTT (3 h): 16.8 s | Bas (3 h): 0.4% | Eos (3 h): 0.8% | Fbg (3 h): 267 mg/dL | Hb (3 h): 13.4 g/dL | Ht (3 h): 40.2% | Lym (3 h): 78.6% | MCHC (3 h): 33.3% | MCV (3 h): 62.2 fL | Mono (3 h): 3% | PT (3 h): 13.9 s | Plat (3 h): 116.9 x10_4/uL | RBC (3 h): 646.8 x10_4/ul | Ret (3 h): 8.3% | WBC (3 h): 81.2 x10_2/uL | KIDNEY_L (3 h): 0.9 g | KIDNEY_R (3 h): 0.9 g | KIDNEY_TOTAL (3 h): 1.9 g | LIVER (3 h): 9.6 g | ALP (3 h): 1709.4 IU/L | ALT (3 h): 37 IU/L | AST (3 h): 75.6 IU/L | BUN (3 h): 9.8 mg/dL | CRE (3 h): 0.2 mg/dL | DBIL (3 h): 0.018 mg/dL | GLC (3 h): 177.4 mg/dL | K (3 h): 4.1 meq/L | LDH (3 h): 127.8 IU/L | Na (3 h): 141.6 meq/L | PL (3 h): 145.2 mg/dL | RALB (3 h): 2.5 g/dL | TBIL (3 h): 0.056 mg/dL | TC (3 h): 75.8 mg/dL | TG (3 h): 61.4 mg/dL | TP (3 h): 5.4 g/dL | gamma-GTP (3 h): 1.2 IU/L | TERMINAL_BW (6 h): 207.9 g | APTT (6 h): 16.8 s | Bas (6 h): 0.6% | Eos (6 h): 0.8% | Fbg (6 h): 297.4 mg/dL | Hb (6 h): 13.3 g/dL | Ht (6 h): 39.4% | Lym (6 h): 79.4% | MCHC (6 h): 33.6% | MCV (6 h): 61.5 fL | Mono (6 h): 3% | PT (6 h): 14.1 s | Plat (6 h): 121.6 x10_4/uL | RBC (6 h): 641.4 x10_4/ul | Ret (6 h): 7.5% | WBC (6 h): 97.9 x10_2/uL | KIDNEY_L (6 h): 0.9 g | KIDNEY_R (6 h): 0.9 g | KIDNEY_TOTAL (6 h): 1.8 g | LIVER (6 h): 8.5 g | ALP (6 h): 1520.6 IU/L | ALT (6 h): 34.4 IU/L | AST (6 h): 67.6 IU/L | BUN (6 h): 8.6 mg/dL | CRE (6 h): 0.2 mg/dL | DBIL (6 h): 0.018 mg/dL | GLC (6 h): 184.2 mg/dL | K (6 h): 4.3 meq/L | LDH (6 h): 96.2 IU/L | Na (6 h): 142.2 meq/L | PL (6 h): 139.6 mg/dL | RALB (6 h): 2.5 g/dL | TBIL (6 h): 0.05 mg/dL | TC (6 h): 77.8 mg/dL | TG (6 h): 44.2 mg/dL | TP (6 h): 5.4 g/dL | gamma-GTP (6 h): 1.4 IU/L | TERMINAL_BW (9 h): 205.9 g | APTT (9 h): 15.5 s | Bas (9 h): 0.6% | Eos (9 h): 0.8% | Fbg (9 h): 295.6 mg/dL | Hb (9 h): 13.5 g/dL | Ht (9 h): 40.5% | Lym (9 h): 76.2% | MCHC (9 h): 33.4% | MCV (9 h): 61.1 fL | Mono (9 h): 2.6% | PT (9 h): 13.8 s | Plat (9 h): 126 x10_4/uL | RBC (9 h): 663.4 x10_4/ul | Ret (9 h): 7.6% | WBC (9 h): 79.7 x10_2/uL | KIDNEY_L (9 h): 0.9 g | KIDNEY_R (9 h): 0.9 g | KIDNEY_TOTAL (9 h): 1.8 g | LIVER (9 h): 8.7 g | ALP (9 h): 1437.2 IU/L | ALT (9 h): 29.8 IU/L | AST (9 h): 68.8 IU/L | BUN (9 h): 9.8 mg/dL | CRE (9 h): 0.2 mg/dL | DBIL (9 h): 0.014 mg/dL | GLC (9 h): 177.4 mg/dL | K (9 h): 4.2 meq/L | LDH (9 h): 93.4 IU/L | Na (9 h): 142.4 meq/L | PL (9 h): 131.6 mg/dL | RALB (9 h): 2.5 g/dL | TBIL (9 h): 0.052 mg/dL | TC (9 h): 72.4 mg/dL | TG (9 h): 40 mg/dL | TP (9 h): 5.5 g/dL | gamma-GTP (9 h): 1.6 IU/L | TERMINAL_BW (24 h): 224.3 g | APTT (24 h): 17.7 s | Bas (24 h): 0.4% | Eos (24 h): 1% | Fbg (24 h): 273.4 mg/dL | Hb (24 h): 13.2 g/dL | Ht (24 h): 39.1% | Lym (24 h): 79.8% | MCHC (24 h): 33.7% | MCV (24 h): 62.6 fL | Mono (24 h): 2.2% | PT (24 h): 14.4 s | Plat (24 h): 121.9 x10_4/uL | RBC (24 h): 625.6 x10_4/ul | Ret (24 h): 7.8% | WBC (24 h): 108.2 x10_2/uL | KIDNEY_L (24 h): 1 g | KIDNEY_R (24 h): 1 g | KIDNEY_TOTAL (24 h): 2.1 g | LIVER (24 h): 10.6 g | ALP (24 h): 1864.2 IU/L | ALT (24 h): 42.4 IU/L | AST (24 h): 75.2 IU/L | BUN (24 h): 14.8 mg/dL | CRE (24 h): 0.2 mg/dL | DBIL (24 h): 0.024 mg/dL | GLC (24 h): 187.6 mg/dL | K (24 h): 4 meq/L | LDH (24 h): 95.6 IU/L | Na (24 h): 142.6 meq/L | PL (24 h): 152 mg/dL | RALB (24 h): 2.6 g/dL | TBIL (24 h): 0.042 mg/dL | TC (24 h): 74.8 mg/dL | TG (24 h): 100.2 mg/dL

Source: ChEMBL document CHEMBL3885861, “Open TG-GATES”
